Results published in patent US20090162447A1, “Spherically Shaped Substances” (priority 2005, published 2009).
Several values for one entry are separate records, joined by “and”; a condition that tells them apart may be missing. Identical values can stand only once. Counter-ions that a name gives are not always drawn.

Key:
Assay type in all cases: physicochemical
[1] = Sphericity by optical microscope images and image processing software (Buehler Omnimet)
Description: Thus, denoting the area of the image by A and the perimeter of the image by P, the sphericity, s, can be defined as s=4πA/P^2. As will be appreciated by one of ordinary skill in the art, when the image is a perfect circle, A=π(P/2π)^2=P^2/4π and s=1. When the area of the image is 0 (i.e., the image is a line or a curve) s=0. The samples were imaged through a transmission optical microscope (magnification: ×12.5). The images were analyzed by image processing software (Buehler Omnimet®). Each image processing comprised the following steps. In a first step the particles were delineated for 1 cycle; in a second step, dark areas were defined by thresholding; in a third step, the dark areas were filled; in a fourth step, particles smaller than 20×20 pixels were eliminated; in a fifth step border particles were eliminated; and in a sixth step the delineation of the non-eliminated particles were processed by the octagonal kernel of the software for 3 cycles. FIG. 19 is an image showing the raw sucrose particles after image processing. Following image processing the area, A, and perimeter, P, of each particle was measured from the images. The sphericity of each particle was defined as 4πA/P^2.

[2] = Shape factor and aspect ratio by DSA-10 image analyzer; details: samples (i)-(iii); for shape factor: 4πA/P^2 by DSA-10 during constant flow of slurry; for aspect ratio: minimal Feret / maximal Feret
Description: The sphericity of the particles was also measured using a DSA-10 image analyzer (Ankersmid Ltd., Israel). The analysis was performed during constant flow of slurry containing the particles. Images of about 1000 particles were analyzed by the image analyzer to determine the sphericity of the particles. In these measurements the sphericity was also as defined 4πA/P^2. To distinguish between the sphericity values obtained as determined using the image processing software and the sphericity values obtained using the image analyzer, the latter are referred to below as “shape factor”.
Beside sphericity, the DSA-10 image analyzer was used to characterize the shape of the particles by their aspect ratio, defined as the ratio between the minimal Feret and the maximal Feret of the particles.

[3] = Flow rate test with Hall flow meter; details: 5 millimeter diameter nozzle tilted at an angle of 30°
Description: The flowability of the powder of the present embodiments can also be characterized by its flow rate at certain conditions. The flowability can be measured using a suitable flow meter, such as, but not limited to, a Hall flow meter. Thus, according to a preferred embodiment of the present invention the powder of the preset embodiments is capable of maintaining a flow rate of at least 6, more preferably at least 8, more preferably at least 10 gram per square centimeter per second, through a 5 millimeters nozzle tilted at an angle of 30°.
The metformin particles were subjected to a flow rate test using a Hall flow meter having a 5 millimeter diameter nozzle. The nozzle was tilted at an angle of 30°.

[4] = Angle of repose test on tilted smooth tile; details: tile tilted 1° at a time; angle at which first particles slide
Description: Another definition of the angle of repose is the maximum angle of tilt of a bed of the powder beyond which the powder cannot retain a static pose. To measure the angle of repose according to this definition, the powder of the present embodiments can be placed on a smooth solid bed surface. The bed surface can then be tilted very slowly about the horizontal axis to a maximum angle without the particles sliding. When the bed surface is tilted beyond the maximum angle, sliding occurs, and the angle of the bed surface to the horizontal once the particles begin sliding is defined as the angle of repose. An angle of repose measured by this technique is oftentimes referred to as tilting angle of repose.
The diltiazem hydrochloride particles were subjected to an angle of repose test. The particles were placed on a smooth tile positioned horizontally. The tile was tilted slowly each time at 1° about the horizontal axis. The angle of repose was defined as the angle at which the first particles had slide.

[5] = BET specific surface area measurement (TriStar 3000 analyzer)
Description: A BET surface of the particle refers to a surface measured using a method developed by Brunauer, Emmett and Teller and commonly referred to as BET method. According to the BET method, the surface area is determined by allowing the surface to interact with nitrogen molecules and analyzing the corresponding adsorption curves. The BET method is well known in the art and is found in many publications (to this end see, e.g., S. J. Gregg and K. S. Sing, “Adsorption, Surface Area and Porosity”, Academic Press, London, 1995).
Following drying, a sample of the formed sucrose particles was subjected to BET measurement using a TriStar 3000 analyzer (Micromeritics, Georgia, USA), to obtain a specific surface area for the particles (surface area per unit mass). An averaged value of 0.03 m^2/gr was measured. For comparison, the specific surface area of a sample of prior art particles of similar size (355-500 micrometer Suglets®, purchased from NP Pharm, France), was also measured. The specific surface area of the particles of this sample was 0.27 m^2/gr. Thus, the sucrose particles produced according to the teaching of the present embodiments of the invention are characterized by a specific surface area which is about 9 times smaller than the specific surface area characterizing the prior art. As the average size of the samples was similar, the specific surface was used as a measure of the smoothness of the particles.

[6] = Ratio of optical surface area to BET surface area / rugosity
Description: In an additional embodiment, the smoothness is defined by a ratio between an optical surface area of the particle and a BET surface area thereof.
An optical surface area of the particle is the surface area of the particle as measured optically. Such measurement can be performed, for example, by obtaining an image of the particle using an optical microscope and estimating its surface area, by approximating the shape of the particle to a symmetrical shape. For example, when the shape of the particle is similar to a sphere, its optical surface area can be approximated by 4πR^2, where R is the radius of the particle, as measured from the image. When the shape of the particle is similar to a spheroid, having a long axis a and an aspect ratio of ε, its surface area can be approximated by 2πa^2 ε (ε+t/b), where b is given by b^2=1−ε^2, and t (in radians) is given by sin(t)=b. As will be appreciated by one ordinarily skilled in the art the aspect ratio can also be approximated as the square root of the sphericity defined above.
A BET surface of the particle refers to a surface measured using a method developed by Brunauer, Emmett and Teller and commonly referred to as BET method. According to the BET method, the surface area is determined by allowing the surface to interact with nitrogen molecules and analyzing the corresponding adsorption curves. […]

[7] = Surface smoothness from particle images (Scanning Electron Microscopy); details: as shown in images of the particles
Description: An additional estimate of the particles' smoothness was performed by analyzing the samples via Scanning Electron Microscopy (SEM). FIGS. 9A-C are images of the raw sucrose particles (FIG. 9A), sucrose particles of the present embodiments (FIG. 9B) and the prior art particles (FIG. 9C).

[8] = Table 2, samples (i)-(iii), hydrochloride
[9] = 4πA/P^2, Table 1, magnification ×12.5

sphericity ([1]; Table 2, samples (i)-(iii)) | shape factor [2] | aspect ratio [2] | sphericity [1, 8] | shape factor ([2]; hydrochloride) | aspect ratio ([2]; hydrochloride) | Compound | also measured
0.4997 and 0.4760 and 0.4144 | 0.7789 and 0.7908 and 0.7886 | 0.6102 and 0.6062 and 0.6221 |  |  |  | NC(=O)N1c2ccccc2CC(=O)c2ccccc21 [raw oxcarbazepine, oxcarbazepine, reference compound] | 
 |  |  | 0.5106 and 0.5220 and 0.5139 | 0.8426 and 0.8168 and 0.8467 | 0.6915 and 0.6935 and 0.6947 | COc1ccc([C@@H]2Sc3ccccc3N(CCN(C)C)C(=O)[C@@H]2OC(C)=O)cc1.Cl [rounded dilitiazem hydrochloride 20-45 μm] [diltiazem hydrochloride] | 
0.6146 and 0.5675 and 0.5720 | 0.8244 and 0.8214 and 0.8404 | 0.6900 and 0.6434 and 0.6420 |  |  |  | CN(C)C(=N)N=C(N)N [raw metformin, metformin, reference compound] | flow rate ([3]; listed as raw metformin particles): no flow was observed
 |  |  |  |  |  | OC[C@H]1O[C@@](CO)(O[C@H]2O[C@H](CO)[C@@H](O)[C@H](O)[C@H]2O)[C@@H](O)[C@@H]1O [raw sucrose, sucrose, reference compound] | sphericity [1, 9]: 0.773 ± 0.05
 |  |  | 0.6572 and 0.6601 and 0.6940 | 0.8229 and 0.8211 and 0.8368 | 0.7015 and 0.6986 and 0.7053 | COc1ccc([C@@H]2Sc3ccccc3N(CCN(C)C)C(=O)[C@@H]2OC(C)=O)cc1.Cl [rounded dilitiazem hydrochloride above 45 μm] [diltiazem hydrochloride] | 
0.6103 and 0.5707 and 0.4969 | 0.8138 and 0.7996 and 0.8174 | 0.5875 and 0.5887 and 0.5829 |  |  |  | NC(=O)N1c2ccccc2CC(=O)c2ccccc21 [rounded oxcarbazepine, oxcarbazepine] | 
 |  |  | 0.5278 and 0.4773 and 0.4954 | 0.7032 and 0.7056 and 0.6847 | 0.5416 and 0.5442 and 0.5293 | COc1ccc([C@@H]2Sc3ccccc3N(CCN(C)C)C(=O)[C@@H]2OC(C)=O)cc1.Cl [raw dilitiazem hydrochloride, diltiazem hydrochloride, reference compound] | angle of repose [4]: 48 °
 |  |  |  |  |  | OC[C@H]1O[C@@](CO)(O[C@H]2O[C@H](CO)[C@@H](O)[C@H](O)[C@H]2O)[C@@H](O)[C@@H]1O [rounded 300-600 μm sucrose, sucrose] | specific surface area (surface area per unit mass), BET ([5]; dried powder sample, averaged value): 0.03 m^2/gr; BET specific surface ([5]; particles whose average diameter is about 400 micrometer): about 0.03 gr/m^2; specific surface area, times smaller than prior art ([5]; versus 355-500 micrometer Suglets of similar size): about 9 times; rugosity ([6]; corresponds to optical/BET surface area ratio): 1.5-3; optical specific surface area ([6]; spherical or spherical-like particle, diameter about 400 micrometer): 0.01 to 0.02 m²/g; surface of the particles (image) [7]: substantially smooth; sphericity [1, 9]: 0.875 ± 0.027
 |  |  |  |  |  | COc1ccc([C@@H]2Sc3ccccc3N(CCN(C)C)C(=O)[C@@H]2OC(C)=O)cc1 [diltiazem hydrochloride] | surface of the particles (image) [7]: substantially smooth; angle of repose [4]: 38 °
0.7634 and 0.7676 and 0.7344 | 0.8719 and 0.8739 and 0.8843 | 0.6791 and 0.6740 and 0.6904 |  |  |  | CN(C)C(=N)N=C(N)N [rounded metformin, metformin] | surface of the particles (image) [7]: substantially smooth; flow rate ([3]; listed as rounded metformin particles): 10.2 gr/(cm^2×s)
 |  |  | 0.5315 and 0.6004 and 0.5942 | 0.8383 and 0.8419 and 0.8279 | 0.6828 and 0.6923 and 0.6731 | COc1ccc([C@@H]2Sc3ccccc3N(CCN(C)C)C(=O)[C@@H]2OC(C)=O)cc1.Cl [rounded dilitiazem hydrochloride mix 20-45 μm + 45 μm] [diltiazem hydrochloride] | 
